This is an account of results in patent publication US10385108B2, “Peptide analogs of alpha-melanocyte stimulating hormone” (Genzyme Corporation, priority 2008, dated 2019).

SMILES strings stand for the structures. Like-named read-outs stand apart in the source and are kept apart here. Where a SMILES comes first, the peptide text is derived from it. [ ]: non-standard residue; d: D form. dCha = N[C@H](CC1CCCCC1)C(=O)O A value given as a limit tells only on which side of the number the result lay.

In experiment [1] the target is T1, MC1R (Homo sapiens, UniProt Q01726). Also noted: purchased Perkin Elmer, Boston Mass; host or cells: HEK293 transfected cell lines (membrane preparations). Particulars: value quoted, not from Table 1; read-out: Ki MC1R (reported); cited from earlier work.
Experiment [2] concerns B16-F1 murine melanoma cells. Nature of the experiment: Intracellular cAMP in B16-F1 melanoma cells. The format is cell-based. Particulars: for EC50: B16-F1 cells, 10^-4-10^-11 M, 30 min, IBMX. The procedure:
B16-F1 (melanoma cell line) cells from American Type Culture Collection (Manassas, Va.) were seeded into flat bottom 96 well plates at 5×10^4/well and cultured overnight in DMEM (Cambrex, Walkersville, Md.) supplemented with 2 mM glutamine, antibiotics (100 U/ml penicillin and 100 […]) and 10% heat-inactivated fetal bovine serum (Invitrogen, Grand Island, N.Y.). […] Cells were lysed and intracellular cAMP levels were measured by an enzyme immunoassay kit (Amersham Biosciences, Piscataway, N.J.). Forskolin (Sigma, St. Louis, Mo.) at 100 μM served as positive controls.
cAMP levels in B16-F1 melanoma cells after treatment with native α-MSH, RI α-MSH, or a scrambled control peptide were examined. The […] melanoma cell line expresses a high number of MCR1 receptors (3000-4000 receptors/cell) compared with macrophages cell lines which express only 100-200 receptors/cell. Therefore we selected to examine the effect of the RI α-MSH treatment on the melanoma cell line. Murine melanoma B16-F1 cells were treated with native α-MSH, RI α-MSH, or control scrambled peptide at concentrations 1 pg/ml-1 μg/ml. After 30 min, cells were lysed and intracellular cAMP was measured by an enzyme immunoassay. […] However, a higher concentration of RI α-MSH (100 ng/ml) was necessary to increase cAMP compared with native α-MSH which increased cAMP at a 10 pg/ml concentration. This difference in concentration of peptide necessary to increase cAMP levels may be the result of the binding affinity to the MCR1 receptor.
Murine melanoma B16-F1 cells were treated with native α-MSH, RI α-MSH, scrambled peptide control, KPV, or alanine substituted peptides of RI α-MSH at 1 μg/ml (FIG. 7B). […] Peptides designated 810, 811, and 812 have alanine substitutions in the central core tetrapeptide sequence (D-Trp D-Arg D-Phe D-His region; AA 5-8) (variant disclosed in SEQ ID NO:2) proposed to be involved in native α-MSH binding to the melanocortin receptor and its biological activity. […] The residues in the core tetrapeptide (wrfh) (variant disclosed in SEQ ID NO:2) and to a lesser extent, the methionine 4 of RI-MSH are critical for binding to MC1R.
B16-F1 murine melanoma cells were cultured into 96 well plates 5×10^4 cells/well overnight in media with L-glutamine and pen/strep and FBS. Media was removed and new media with IBMX was added to the cells for 1 hr. Cells were then treated with RI α-MSH, or RI α-MSH peptide analogs (890, 891, 892, 893, 894 or 895). Cells were lysed after 30 min using a cAMP assay kit and supernatant were used in the assay. Forskolin at 10 μM served as positive controls.
Intracellular cAMP was measured using a cAMP competition Assay Kit (Amersham Biosciences). All cell lysate samples were diluted 1:100 for analysis.
Murine melanoma B16-F1 cells were treated with RI α-MSH, or RI α-MSH analogs (869, 872, 880, 878, 886 and 890-895) at a concentration range of 10^−4-10^−11 M. cAMP levels from cells treated with RI α-MSH, or RI α-MSH analogs. […] See FIG. 22 for graphical data and Table 2 for EC50 data.

Experiment [3] concerns the target T1, MC1R. The experiment can be described thus: Competitive binding with 125I-NDP-MSH, HEK293 membrane preparations, MC1R.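 For all read-outs here: Read-out: receptor-bound radioligand retained by filtration and counted.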 Particulars: for Ki: Ki MC1R, competition with 125I-NDP-MSH.
Procedure: (§1) Binding analysis was done by Cerep laboratories (Paris, France) with coded samples.
(§2) The mixtures were filtered through 96-well GFC filters (Millipore, Billerica, Mass.), washed 3 times with binding buffer without BSA, dried and counted.
(§3) A competitive binding assay using a MCR panel including MCR 1, 3, 4, and 5 was performed.
Experiment [4] deals with MC3R (Homo sapiens, UniProt P41968). Nature of the experiment: Competitive binding with 125I-NDP-MSH, HEK293 membrane preparations, MC3R.
Procedure: as §1, §2, §3
In experiment [5] the target is MC4R (Homo sapiens, UniProt P32245). The experiment can be described thus: Competitive binding with 125I-NDP-MSH, HEK293 membrane preparations, MC4R.
Procedure: as §1, §2, §3
Experiment [6] deals with MC5R (Homo sapiens, UniProt P33032). The experiment can be described thus: Competitive binding with 125I-NDP-MSH, HEK293 membrane preparations, MC5R. The conditions noted are these: Ki MC5R, competition with 125I-NDP-MSH; cells noted in μM.
Procedure: as §1, §2, §3
Experiment [7] deals with C57BL/6 mice. The experiment can be described thus: LPS inflammation mouse model, serum cytokines. The format is in vivo. The conditions noted are these: i.p. 30 min after LPS, serum at 2 h. The procedure:
Male C57BL/6 mice were challenged with LPS (1 ug/mouse), i.p. After 30 min mice were treated with dexamethasone (2 mg/kg; Sigma), RI-α-MSH analog 891, or RI-α-MSH. At 2 hrs after LPS challenge, mice were bled for serum. Cytokine analysis was measured by flow cytometry with a cytometric bead array kit (BD Biosciences).
C57BL/6 mice were injected with LPS, i.p. and 30 minutes later native α-MSH or RI α-MSH analog 891 was administered i.p. at doses ranging from 5 mg/kg to 0.156 mg/kg. RI α-MSH analog 891 is an analog of RI α-MSH in which d-Cha and hsiiss D-amino acids were added to the core peptide sequence. […] MCP-1 was not affected by native α-MSH treatment (FIG. 16B).

In experiment [8] the target is mouse MC1R (Mus musculus, UniProt Q01727). Nature of the experiment: Binding affinity to mouse MC1R (data not shown).
Where [9] appears, read: peptides 5 to 0.156 mg/kg, dexamethasone 2 mg/kg.

Chain of MC3R (P41968 whole entry): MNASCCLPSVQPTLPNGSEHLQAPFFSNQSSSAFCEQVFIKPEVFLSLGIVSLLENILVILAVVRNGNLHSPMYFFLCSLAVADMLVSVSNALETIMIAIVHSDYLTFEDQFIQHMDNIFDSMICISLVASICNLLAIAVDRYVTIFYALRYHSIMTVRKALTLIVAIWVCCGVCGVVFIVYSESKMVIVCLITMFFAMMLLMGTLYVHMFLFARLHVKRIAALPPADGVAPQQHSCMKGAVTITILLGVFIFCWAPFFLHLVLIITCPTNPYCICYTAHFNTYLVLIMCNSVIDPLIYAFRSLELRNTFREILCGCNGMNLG
Chain of MC5R (P33032 whole entry): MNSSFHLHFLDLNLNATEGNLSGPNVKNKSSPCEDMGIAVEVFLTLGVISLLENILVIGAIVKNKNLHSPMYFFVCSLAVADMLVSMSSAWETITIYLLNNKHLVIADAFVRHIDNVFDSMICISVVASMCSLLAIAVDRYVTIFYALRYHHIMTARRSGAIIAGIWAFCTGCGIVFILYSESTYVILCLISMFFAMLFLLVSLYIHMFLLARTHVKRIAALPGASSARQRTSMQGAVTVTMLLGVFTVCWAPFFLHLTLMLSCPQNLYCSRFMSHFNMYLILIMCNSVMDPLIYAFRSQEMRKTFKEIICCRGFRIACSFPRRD
Chain of MC4R (P32245 whole entry): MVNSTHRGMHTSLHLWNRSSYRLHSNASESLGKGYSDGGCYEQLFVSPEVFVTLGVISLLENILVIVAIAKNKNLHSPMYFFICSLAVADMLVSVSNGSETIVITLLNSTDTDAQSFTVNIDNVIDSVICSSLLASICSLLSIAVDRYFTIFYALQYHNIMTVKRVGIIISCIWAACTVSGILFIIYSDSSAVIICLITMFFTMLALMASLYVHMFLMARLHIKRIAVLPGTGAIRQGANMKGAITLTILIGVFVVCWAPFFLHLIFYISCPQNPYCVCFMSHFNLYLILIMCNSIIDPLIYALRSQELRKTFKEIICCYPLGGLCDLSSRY
T1 sequence (Q01726 whole entry): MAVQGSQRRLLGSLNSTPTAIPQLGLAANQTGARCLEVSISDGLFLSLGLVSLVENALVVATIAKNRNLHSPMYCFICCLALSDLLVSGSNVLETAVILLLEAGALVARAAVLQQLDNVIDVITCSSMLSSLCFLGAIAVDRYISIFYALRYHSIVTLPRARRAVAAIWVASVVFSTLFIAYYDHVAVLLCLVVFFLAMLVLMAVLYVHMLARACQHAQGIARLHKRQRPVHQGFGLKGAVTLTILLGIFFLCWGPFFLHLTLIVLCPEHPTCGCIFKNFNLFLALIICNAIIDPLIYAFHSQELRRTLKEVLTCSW
Chain of mouse MC1R (Q01727 whole entry): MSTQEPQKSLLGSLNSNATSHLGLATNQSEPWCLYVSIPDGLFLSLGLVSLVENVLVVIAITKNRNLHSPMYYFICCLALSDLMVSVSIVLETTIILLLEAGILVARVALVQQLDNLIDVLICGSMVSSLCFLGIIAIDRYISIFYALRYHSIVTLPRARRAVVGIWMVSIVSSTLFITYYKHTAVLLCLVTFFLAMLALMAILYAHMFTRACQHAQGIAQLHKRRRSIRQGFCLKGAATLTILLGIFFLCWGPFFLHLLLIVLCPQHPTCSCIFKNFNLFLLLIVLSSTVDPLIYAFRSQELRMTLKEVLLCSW

As to `NC(=O)[C@H](Cc1c[nH]c2ccccc12)NC(=O)[C@H](CCCN=C(N)N)NC(=O)[C@@H](Cc1ccccc1)NC(=O)[C@H](Cc1cnc[nH]1)NC(=O)CCCc1ccccc1` [compound 819, (Ph(CH2)3CO) HfRW], the inhibition constant (Ki) (in general, a measure of affinity in units of concentration, obtained from inhibition or displacement) in experiment [1] is 6 pM.

Take `CSCC[C@@H](NC(=O)[C@@H](CCC(=O)O)NC(=O)[C@@H](Cc1c[nH]cn1)NC(=O)[C@@H](CC1CCCCC1)NC(=O)[C@@H](CCCNC(=N)N)NC(=O)[C@@H](Cc1c[nH]c2ccccc12)NC(=O)CNC(=O)[C@@H](CCCCN)NC(=O)[C@H]1CCCN1C(=O)[C@H](NC(C)=O)C(C)C)C(=O)N[C@H](CO)C(=O)N[C@H](Cc1ccc(O)cc1)C(=O)N[C@H](CO)C(N)=O` [compound 869, vpkGwr(D-Cha)hemsys]: in experiment [2], the concentration for a half-maximal effect (EC50) (commonly the concentration at which the effect is half-maximal) was 0.014 µM. Further, the Ki was 0.0022 µM in experiment [3], > 30 µM in experiment [4], > 10 µM in experiment [5] and ~25 µM in experiment [6].

With `CCCCSCC[C@@H](NC(=O)[C@@H](CCC(=O)O)NC(=O)[C@@H](Cc1c[nH]cn1)NC(=O)[C@@H](Cc1ccccc1)NC(=O)[C@@H](CCCNC(=N)N)NC(=O)[C@@H](Cc1c[nH]c2ccccc12)NC(=O)CNC(=O)[C@@H](CCCCN)NC(=O)[C@H]1CCCN1C(=O)[C@H](NC(C)=O)C(C)C)C(=O)N[C@H](CO)C(=O)N[C@H](Cc1ccc(O)cc1)C(=O)N[C@H](CO)C(N)=O` [compound 878, vpkGwrfhe(D-buthionine)sys], the Ki is 0.0023 µM in experiment [3], ~40 µM in experiment [4], > 30 µM in experiment [5] and ~30 µM in experiment [6].

`CC[C@@H](C)[C@@H](NC(=O)[C@@H](CO)NC(=O)[C@@H](Cc1c[nH]cn1)NC(=O)[C@H](Cc1ccccc1)NC(=O)[C@@H](CCCNC(=N)N)NC(=O)[C@@H](Cc1c[nH]c2ccccc12)NC(=O)CNC(=O)[C@@H](CCCCN)NC(=O)[C@H]1CCCN1C(=O)[C@H](NC(C)=O)C(C)C)C(=O)N[C@@H](C(=O)N[C@H](CO)C(=O)N[C@H](CO)C(N)=O)[C@H](C)CC` [compound 880, vpkGwrFhsiiss] (Ac-[dV][dP][dK]G[dW][dR]F[dH][dS][dI][dI][dS][dS]-NH2) came in with an EC50 in experiment [2] of 0.023 µM. Further, the Ki is 0.0018 ± 0.0035 µM in experiment [3], ~18 µM in experiment [4], ~10 µM in experiment [5] and > 30 µM in experiment [6].

Regarding `CC[C@@H](C)[C@@H](NC(=O)[C@@H](CO)NC(=O)[C@@H](Cc1c[nH]cn1)NC(=O)[C@@H](Cc1ccccc1)NC(=O)[C@@H](CCCNC(=N)N)NC(=O)[C@@H](Cc1c[nH]c2ccccc12)NC(=O)CNC(=O)[C@@H](CCCCN)NC(=O)[C@H]1CCCN1C(=O)[C@H](NC(C)=O)C(C)C)C(=O)N[C@@H](C(=O)N[C@H](CO)C(=O)N[C@H](CO)C(N)=O)[C@H](C)CC` [compound 886, vpkgwrfhsiiss] (Ac-[dV][dP][dK]G[dW][dR][dF][dH][dS][dI][dI][dS][dS]-NH2), the EC50 in experiment [2] amounted to 0.002 µM. The Ki is 0.001 µM in experiment [3], ~19 µM in experiment [4], ~10 µM in experiment [5] and ~20 µM in experiment [6].

Take `CCCCSCC[C@@H](NC(=O)[C@@H](CCC(=O)O)NC(=O)[C@@H](Cc1c[nH]cn1)NC(=O)[C@@H](CC1CCCCC1)NC(=O)[C@@H](CCCNC(=N)N)NC(=O)[C@@H](Cc1c[nH]c2ccccc12)NC(=O)CNC(=O)[C@@H](CCCCN)NC(=O)[C@H]1CCCN1C(=O)[C@H](NC(C)=O)C(C)C)C(=O)N[C@H](CO)C(=O)N[C@H](Cc1ccc(O)cc1)C(=O)N[C@H](CO)C(N)=O` [compound 890, vpkGwr(D-Cha)he(d-Buthionine)sys]: the Ki was 0.0019 µM in experiment [3], ~15 µM in experiment [4], ~14 µM in experiment [5] and ~4.5 µM in experiment [6].

Compound `CC[C@@H](C)[C@@H](NC(=O)[C@@H](CO)NC(=O)[C@@H](Cc1c[nH]cn1)NC(=O)[C@@H](CC1CCCCC1)NC(=O)[C@@H](CCCNC(=N)N)NC(=O)[C@@H](Cc1c[nH]c2ccccc12)NC(=O)CNC(=O)[C@@H](CCCCN)NC(=O)[C@H]1CCCN1C(=O)[C@H](NC(C)=O)C(C)C)C(=O)N[C@@H](C(=O)N[C@H](CO)C(=O)N[C@H](CO)C(N)=O)[C@H](C)CC` [compound 891, vpkGwr(D-Cha)hsiiss] (Ac-[dV][dP][dK]G[dW][dR][dCha][dH][dS][dI][dI][dS][dS]-NH2) yielded an EC50 in experiment [2] of 0.081 µM. Further, the “potency to stimulate cAMP (in words)” value in experiment [2] (data not shown) is “increased potency to stimulate cAMP”. Further, the “serum IL-10 vs vehicle (in words)” value in experiment [7] (5 to 0.156 mg/kg) is listed as “significant decrease”. Also, in experiment [7] (setting [9]), the “serum MCP-1 vs vehicle (in words)” value was “no affect”. The “serum TNF-α vs vehicle (in words)” value in experiment [7] (setting [9]) is given as “significant decrease”. Besides, the “binding affinity to mouse MC1R (in words)” value in experiment [8] is listed as “increased binding affinity”. Further, the “affinity for MC1R compared with parent peptide (in words)” value in experiment [3] is “indistinguishable from MSH”. Besides, the Ki in experiment [3] was 0.00043 ± 1e-05 µM; in experiment [4] it was ~8 µM; in experiment [5] it was ~3.2 µM; in experiment [6] it was ~2.5 µM.
